Experimental data reported in patent US8518953B2, “Aminopyrimidines useful as inhibitors of protein kinases” (Vertex Pharmaceuticals Incorporated, priority 2007, dated 2013).

How the values were obtained:
[1] = target: T1, GSK3α TYR 279 (Homo sapiens, UniProt P49840); test: GSK-3α p-TYR Inhibition Assay (western blotting of Jurkat cells); type: cell-based; conditions: western blot, read-out: GSK3a pTYR 279: IC50
T1 construct: western blotting of Jurkat cells dosed with the compounds; endogenous in cells; host or cells: Jurkat cells
T1 sequence (P49840 whole entry): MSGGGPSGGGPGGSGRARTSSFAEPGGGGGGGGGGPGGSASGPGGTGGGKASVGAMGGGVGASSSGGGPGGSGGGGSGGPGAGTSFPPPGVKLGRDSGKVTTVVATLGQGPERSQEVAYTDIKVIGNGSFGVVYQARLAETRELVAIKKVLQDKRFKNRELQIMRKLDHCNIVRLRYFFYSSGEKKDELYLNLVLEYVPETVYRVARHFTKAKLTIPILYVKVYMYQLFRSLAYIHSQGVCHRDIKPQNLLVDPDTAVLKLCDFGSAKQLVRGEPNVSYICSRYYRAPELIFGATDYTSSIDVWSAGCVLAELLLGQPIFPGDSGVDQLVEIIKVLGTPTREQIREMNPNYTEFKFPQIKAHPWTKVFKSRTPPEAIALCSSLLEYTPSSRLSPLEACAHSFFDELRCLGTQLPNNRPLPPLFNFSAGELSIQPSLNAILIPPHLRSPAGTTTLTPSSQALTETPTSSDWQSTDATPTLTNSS
Method: (§1) Compounds are screened for their ability to inhibit the phosphorylation of tyrosine (TYR) residues through the use of western blotting of Jurkat cells dosed with the compounds. The phosphorylation of the specific TYR residues tested are GSK3α TYR 279 and GSK3β TYR 216.
(§2) Jurkat cells are seeded at a density of 2×10^5 cells/well in a 12 well dish in starvation media (RPMI+1% FBS+P/S). Following starvation for 16 hours, the compound is dosed into each well at a final DMSO concentration of 0.3% and cells are incubated o/n at 37° C. 5% CO2. The next day, cells are spun down at 1500 rpm, washed with PBS, and lysed in 100 uL Laemli sample buffer with β-mercaptoethanol.
(§3) 15 microliters (uL) of cell lysates are loaded onto a 10% tris-glycine gel and run at 120 v for 2 hours or until dye front runs off of the gel. The protein is then transferred onto a PVDF membrane at 100 v for 60 min. PBST (PBS containing 0.1% Tween 20, such as 1 ml Tween per 1 L of PBS) is then made up and used for all washes and antibody incubations. The blot is blocked in 5% nonfat milk PBST for one hour.
(§4) The primary antibody (GSK-3α/β pTYR 279/216 at 1:1000 dilution Upstate cat#05-413) is then added in […] PBST overnight at 4° C. with gentle rocking. The blot is then washed in PBST for 5 min. This is then repeated 4 times. […]

[2] = tested on: β-catenin dependent TCF/LEF transcriptional activity; test: β-Catenin Stabilization Protocol (β-lactamase reporter assay in Jurkat cells); type: cell-based; conditions: Homo sapiens, 460/530 ratio, read-out: Beta Catenin IC50
Description: GSK-3 phosphorylation of β-catenin targets it to the proteosome for degradation. Inhibition of GSK-3 results in accumulation of β-catenin in the cytosol of cells which through interaction with the transcription factor TCF/LEF translocates to the nucleus and drives the transcription of Wnt-dependent genes. The assay is designed to determine the level of β-catenin dependent TCF/LEF transcriptional activity in a quantitative manner through the use of a β-lactamase reporter assay in Jurkat cells dosed with a compound.
Jurkat β-catenin cells are starved overnight in assay media (1% FBS, 1× Penstrep, RPMI) in the flask. The next day Jurkat β-catenin cells are seeded in 96 well flat bottom plates at a density of 50,000 cells/well in assay media in a volume of 100 ul. The compound is added to the well at a final DMSO concentration of 0.75% and incubated at 37° C. o/n. The next day, 20 uL of 6×CCF4 dye is added to the wells and incubated at room temperature for 1-2 hours. Plates are read on the Cytofluor 4000 series multiwell plate reader and the 460/530 ratio is determined.

[3] = target: T2, GSK3β TYR 216 (Homo sapiens, UniProt P49841); test: GSK3β p-TYR Inhibition Assay (western blotting of Jurkat cells); type: cell-based; conditions: western blot, read-out: GSK3b pTYR 216: IC50
T2 construct: western blotting of Jurkat cells dosed with the compounds; endogenous in cells; host or cells: Jurkat cells
T2 sequence (P49841 whole entry): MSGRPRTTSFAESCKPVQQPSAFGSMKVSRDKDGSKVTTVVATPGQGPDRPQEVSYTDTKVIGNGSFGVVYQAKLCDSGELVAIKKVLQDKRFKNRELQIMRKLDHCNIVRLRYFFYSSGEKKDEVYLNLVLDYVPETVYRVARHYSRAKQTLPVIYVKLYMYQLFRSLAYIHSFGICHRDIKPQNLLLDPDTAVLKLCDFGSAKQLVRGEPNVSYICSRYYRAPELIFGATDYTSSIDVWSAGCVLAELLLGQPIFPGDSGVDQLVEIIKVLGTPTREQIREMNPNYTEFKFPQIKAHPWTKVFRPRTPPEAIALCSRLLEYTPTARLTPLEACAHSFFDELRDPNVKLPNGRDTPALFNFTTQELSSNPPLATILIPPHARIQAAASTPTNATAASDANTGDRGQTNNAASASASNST
Method: as §1, §2, §3, §4

[4] = target: T3, GSK-3β (AA 1-420) (Homo sapiens, UniProt P49841); test: GSK-3 Inhibition Assay (standard coupled enzyme system); type: biochemical; conditions: 20 μM ATP, 300 μM peptide, 20 nM GSK-3β, 30° C.
T3 construct: GSK-3β (AA 1-420)
T3 sequence (P49841 whole entry, species assumed, the tested form may be a part): as the sequence (P49841 whole entry) above
Method: Compounds of the present invention were screened for their ability to inhibit GSK-3β (AA 1-420) activity using a standard coupled enzyme system (Fox et al., Protein Sci. 1998, 7, 2249). Reactions were carried out in a solution containing 100 mM HEPES (pH 7.5), 10 mM MgCl2, 25 mM NaCl, 300 μM NADH, 1 mM DTT and 1.5% DMSO. Final substrate concentrations in the assay were 20 μM ATP (Sigma Chemicals, St Louis, Mo.) and 300 μM peptide (American Peptide, Sunnyvale, Calif.). Reactions were carried out at 30° C. and 20 nM GSK-3β. Final concentrations of the components of the coupled enzyme system were 2.5 mM phosphoenolpyruvate, 300 μM NADH, 30 μg/ml pyruvate kinase and 10 μg/ml lactate dehydrogenase.
An assay stock buffer solution was prepared containing all of the reagents listed above with the exception of ATP and the test compound of the present invention. The assay stock buffer solution (175 μl) was incubated in a 96 well plate with 5 μl of the test compound of the present invention at final concentrations spanning 0.002 μM to 30 μM at 30° C. for 10 min. […] Rates of reaction were obtained using a Molecular Devices Spectramax plate reader (Sunnyvale, Calif.) over 10 min at 30° C. The Ki values were determined from the rate data as a function of inhibitor concentration.

[5] = tested on: rat brains after transient middle cerebral artery occlusion; conditions: rat brains after transient MCAO; cited from earlier work

Row | IC50 [1] | IC50 [2] | IC50 [3] | Ki [4] | Compound | infarct size [5]
1 | 2 nM | 940 nM | 30 nM | < 5 nM | CCc1c(C)nc(-c2ccccc2Cl)nc1Nc1n[nH]c2ncc(F)cc12 [Compound I-2] | –
2 | – | – | – | – | IGF-1: insulin growth factor-1, a known GSK-3 inhibitor | reduced infarct size
